Active and inactive are the calls of the source. The calls are words filed in the database; no cut-off is given here.
Assays:
[1] = system: Rattus norvegicus; assay: Anti-inflammatory activity in Rattus norvegicus Wistar albino (rat) assessed as inhibition of carrageenan-induced paw edema at 20 mg/kg, po administered 30 min before carrageenan challenge measured after 2.5 hr relative to control; assay type: functional
[2] = system: Rattus norvegicus; assay: Anti-inflammatory activity in Rattus norvegicus Wistar albino (rat) assessed as inhibition of carrageenan-induced paw edema at 20 mg/kg, po administered 30 min before carrageenan challenge measured after 1 hr relative to control; assay type: functional
[3] = system: Rattus norvegicus; assay: Anti-inflammatory activity in Rattus norvegicus Wistar albino (rat) assessed as inhibition of carrageenan-induced paw edema at 20 mg/kg, po administered 30 min before carrageenan challenge measured after 0.5 hr relative to control; assay type: functional
[4] = system: Rattus norvegicus; assay: Anti-inflammatory activity in Rattus norvegicus Wistar albino (rat) assessed as inhibition of carrageenan-induced paw edema at 20 mg/kg, po administered 30 min before carrageenan challenge measured after 2 hr relative to control; assay type: functional
[5] = system: Rattus norvegicus; assay: Anti-inflammatory activity in Rattus norvegicus Wistar albino (rat) assessed as inhibition of carrageenan-induced paw edema at 20 mg/kg, po administered 30 min before carrageenan challenge measured after 1.5 hr relative to control; assay type: functional
[6] = system: Rattus norvegicus; assay: Anti-inflammatory activity in Rattus norvegicus Wistar albino (rat) assessed as inhibition of carrageenan-induced paw edema at 20 mg/kg, po administered 30 min before carrageenan challenge measured after 3 hr relative to control; assay type: functional
[7] = system: Mus musculus; assay: Analgesic activity in po dosed Mus musculus Swiss albino (mouse) assessed as increase in reaction time after 1.5 hr by tail-flick method relative to control; assay type: functional
[8] = system: Radical scavenging activity; assay: Antioxidant activity assessed as DPPH free radical scavenging activity at 100 ug/ml after 30 min; assay type: functional
[9] = system: Mus musculus; assay: Analgesic activity in po dosed Mus musculus Swiss albino (mouse) assessed as increase in reaction time after 1 hr by tail-flick method relative to control; assay type: functional
[10] = system: Mus musculus; assay: Analgesic activity in po dosed Mus musculus Swiss albino (mouse) assessed as increase in reaction time after 0.5 hr by tail-flick method relative to control; assay type: functional
[11] = system: Mus musculus; assay: Analgesic activity in Mus musculus Swiss albino (mouse) assessed as increase in reaction time at 10 mg/kg, po after 1.5 hr by tail-flick method relative to control; assay type: functional
[12] = system: Mus musculus; assay: Analgesic activity in Mus musculus Swiss albino (mouse) assessed as increase in reaction time at 10 mg/kg, po after 0.5 hr by tail-flick method relative to control; assay type: functional
[13] = system: Mus musculus; assay: Analgesic activity in Mus musculus Swiss albino (mouse) assessed as increase in reaction time at 10 mg/kg, po after 1 hr by tail-flick method relative to control; assay type: functional
[14] = Antioxidant activity assessed as superoxide radical scavenging activity at 100 ug/ml after 5 min by NBT reduction assay; assay type: functional
[15] = Antioxidant activity assessed as nitric oxide radical scavenging activity at 100 ug/ml after 150 min by Griess Illosvoy reaction; assay type: functional
[16] = Antioxidant activity assessed as hydroxyl radical scavenging activity at 100 ug/ml after 4 hr; assay type: functional
[17] = system: Rattus norvegicus; assay: Ulcerogenic activity in Rattus norvegicus Wistar albino (rat) assessed as ulcer index at 200 mg/kg, po after 17 hr; assay type: toxicity, organism-based; set-up: dose 200 mg/kg, route oral; conditions: in vivo
[18] = Antioxidant activity assessed as hydroxyl radical scavenging activity at 60 ug/ml after 4 hr; assay type: functional
[19] = Antioxidant activity assessed as nitric oxide radical scavenging activity at 20 ug/ml after 150 min by Griess Illosvoy reaction; assay type: functional
[20] = Antioxidant activity assessed as superoxide radical scavenging activity at 80 ug/ml after 5 min by NBT reduction assay; assay type: functional
[21] = Antioxidant activity assessed as superoxide radical scavenging activity at 60 ug/ml after 5 min by NBT reduction assay; assay type: functional
[22] = Antioxidant activity assessed as nitric oxide radical scavenging activity at 60 ug/ml after 150 min by Griess Illosvoy reaction; assay type: functional
[23] = Antioxidant activity assessed as superoxide radical scavenging activity at 20 ug/ml after 5 min by NBT reduction assay; assay type: functional
[24] = system: Aspergillus; assay: Antifungal activity against Aspergillus by well diffusion method; assay type: functional, organism-based
[25] = system: Rattus norvegicus; assay: Ulcerogenic activity in Rattus norvegicus Wistar albino (rat) assessed as ulcer index at equimolar dose of relative to 200 mg/kg of ibuprofen, po after 17 hr; assay type: toxicity, organism-based; set-up: dose 200 mg/kg, route oral; conditions: in vivo
[26] = Antioxidant activity assessed as hydroxyl radical scavenging activity at 80 ug/ml after 4 hr; assay type: functional
[27] = Antioxidant activity assessed as hydroxyl radical scavenging activity at 40 ug/ml after 4 hr; assay type: functional
[28] = Antioxidant activity assessed as nitric oxide radical scavenging activity at 80 ug/ml after 150 min by Griess Illosvoy reaction; assay type: functional
[29] = Antioxidant activity assessed as superoxide radical scavenging activity at 40 ug/ml after 5 min by NBT reduction assay; assay type: functional
[30] = system: Staphylococcus aureus; assay: Antibacterial activity against Staphylococcus aureus by well diffusion method; assay type: functional, organism-based
[31] = Antioxidant activity assessed as hydroxyl radical scavenging activity at 20 ug/ml after 4 hr; assay type: functional
[32] = Antioxidant activity assessed as nitric oxide radical scavenging activity at 40 ug/ml after 150 min by Griess Illosvoy reaction; assay type: functional
[33] = system: Escherichia coli; assay: Antibacterial activity against Escherichia coli by well diffusion method; assay type: functional, organism-based

SMILES: O=C(O)Cc1ccccc1Nc1c(Cl)cccc1Cl [DICLOFENAC]
- inhibition in vivo at 20 mg/kg [1]: 73%
- inhibition in vivo at 20 mg/kg [2]: 65%
- inhibition in vivo at 20 mg/kg [3]: 82%
- inhibition in vivo at 20 mg/kg [4]: 76%
- inhibition in vivo at 20 mg/kg [5]: 80%
- inhibition in vivo at 20 mg/kg [6]: 75%

SMILES: CC(C)Cc1ccc(C(C)c2nnc3sc(-c4ccccc4Cl)nn23)cc1 (stereo not drawn)
- inhibition in vivo at 20 mg/kg [1]: 58%
- inhibition in vivo at 20 mg/kg [2]: 43%
- Activity [7]: 78.2%
- inhibition [8]: 4.46%
- inhibition in vivo at 20 mg/kg [3]: 64%
- inhibition in vivo at 20 mg/kg [4]: 59%
- inhibition in vivo at 20 mg/kg [5]: 57%
- Activity [9]: 39.74%
- Activity [10]: 19.23%
- inhibition in vivo at 20 mg/kg [6]: 59%

SMILES: CC(C)Cc1ccc(C(C)c2nnc3sc(-c4ccc([N+](=O)[O-])cc4Cl)nn23)cc1 (stereo not drawn)
- inhibition in vivo at 20 mg/kg [1]: 67%
- inhibition in vivo at 20 mg/kg [2]: 4%
- Activity [7]: 41.61%
- inhibition [8]: 1.71%
- inhibition in vivo at 20 mg/kg [4]: 67%
- inhibition in vivo at 20 mg/kg [5]: 59%
- Activity [9]: 31.79%
- Activity [10]: 17.34%
- inhibition in vivo at 20 mg/kg [6]: 69%

SMILES: CC(C)=CCN1CC[C@@]2(C)c3cc(O)ccc3C[C@@H]1[C@@H]2C (racemic)
- Activity [11]: 77.34%
- Activity [12]: 20.44%
- Activity [13]: 40.33%

SMILES: Cc1cc(C(C)(C)C)c(O)c(C(C)(C)C)c1
- inhibition [14]: 72.5%
- inhibition [8]: 84.8%
- inhibition [15]: 62.2%
- inhibition [16]: 68.3%

SMILES: CCc1nn2c(C(C)c3ccc(CC(C)C)cc3)nnc2s1 (stereo not drawn)
- inhibition in vivo at 20 mg/kg [1]: 44%
- inhibition in vivo at 20 mg/kg [2]: 22%
- Activity [7]: 30.06%
- inhibition [8]: 5.61%
- inhibition in vivo at 20 mg/kg [3]: 5%
- inhibition in vivo at 20 mg/kg [4]: 45%
- inhibition in vivo at 20 mg/kg [5]: 49%
- Activity [9]: 16.33%
- Activity [10]: 7.18%
- inhibition in vivo at 20 mg/kg [6]: 55%

SMILES: CC(C)Cc1ccc(C(C)C(=O)O)cc1 (stereo not drawn) [IBUPROFEN]
- Activity [11]: 30.04%
- inhibition in vivo at 20 mg/kg [1]: 39%
- UI [17]: 29.37
- inhibition in vivo at 20 mg/kg [2]: 18%
- inhibition in vivo at 20 mg/kg [3]: 20%
- inhibition in vivo at 20 mg/kg [4]: 36%
- inhibition in vivo at 20 mg/kg [5]: 25%
- Activity [12]: 11.73%
- inhibition in vivo at 20 mg/kg [6]: 42%
- Activity [13]: 22.53%

SMILES: Cc1nn2c(C(C)c3ccc(CC(C)C)cc3)nnc2s1 (stereo not drawn)
- inhibition in vivo at 20 mg/kg [1]: 56%
- inhibition in vivo at 20 mg/kg [2]: 43%
- Activity [7]: 42.66%
- inhibition [8]: 7.9%
- inhibition in vivo at 20 mg/kg [3]: 64%
- inhibition in vivo at 20 mg/kg [4]: 58%
- inhibition in vivo at 20 mg/kg [5]: 62%
- Activity [9]: 32%
- Activity [10]: 26.66%
- inhibition in vivo at 20 mg/kg [6]: 62%

SMILES: CCCc1nn2c(C(C)c3ccc(CC(C)C)cc3)nnc2s1 (stereo not drawn)
- inhibition [18]: 44.2%
- inhibition in vivo at 20 mg/kg [1]: 31%
- inhibition in vivo at 20 mg/kg [2]: 15%
- inhibition [14]: 58.6%
- inhibition [8]: 77.9%
- inhibition in vivo at 20 mg/kg [3]: 10%
- inhibition [19]: 14.3%
- inhibition [15]: 52.6%
- inhibition [20]: 53%
- inhibition in vivo at 20 mg/kg [4]: 28%
- inhibition [21]: 42.4%
- inhibition in vivo at 20 mg/kg [5]: 24%
- inhibition [22]: 38.3%
- inhibition [16]: 62.4%
- inhibition [23]: 24.5%
- Activity [24]: inactive
- UI [25]: 8.54
- inhibition [26]: 56.4%
- inhibition [27]: 38.7%
- inhibition in vivo at 20 mg/kg [6]: 34%
- inhibition [28]: 46.7%
- inhibition [29]: 36.4%
- Activity [30]: inactive
- inhibition [31]: 26.1%
- inhibition [32]: 26.7%
- Activity [33]: inactive

Source: ChEMBL document CHEMBL3044588, “Microwave-mediated synthesis of triazolothiadiazoles as anti-inflammatory, analgesic, and anti-oxidant agents” (Med Chem Res, 2012)
